# From ChEMBL document CHEMBL5233286, “Lasiodiplodiapyrones A and B, Pyrone-Preussomerin Adducts with Highly Strained Polycyclic Ring Systems from Lasiodiplodia pseudotheobromae” (J Nat Prod, 2023)
# Where a SMILES comes first, the peptide text is derived from it. The star is where a group is joined. Cbz = O=C(OCc1ccccc1)*
# System: RAW264.7
# Assay: Anti-inflammatory activity against mouse RAW264.7 cells assessed as inhibition of LPS-induced NO production pretreated with compound for 2 hrs followed by LPS stimulation for 12 hrs by Griess reagent based analysis
# Type: functional, cell-based
row,Compound,IC50 [µM]
1,O=C1C[C@@H](O)[C@]23Oc4cccc5c4[C@](CC[C@@H]5O)(Oc4ccc(O)c1c42)O3,12.8
2,Oc1ccc2c3c1[C@@H](O)[C@H]1O[C@H]1[C@]31Oc3cccc4c3[C@](CC[C@@H]4O)(O2)O1,5.9
3,Cc1cc2c(c(=O)o1)[C@@H]1[C@H](O2)[C@H](O)c2c(O)ccc3c2[C@@]12Oc1cccc4c1[C@](C=C[C@@H]4O)(O3)O2,8.5
4,Cc1cc2c(c(=O)o1)[C@@H]1[C@H](O2)[C@H](O)c2c(O)ccc3c2[C@@]12Oc1cccc4c1[C@](CC[C@@H]4O)(O3)O2,4.8
5,CC(C)C[C@@H](C=O)NC(=O)[C@H](CC(C)C)NC(=O)[C@H](CC(C)C)NC(=O)OCc1ccccc1 [MG-132] (Cbz-Leu-Leu-Leu-aldehyde),2.6
